Reference: patent US11317631B2, “Natamycin compositions and uses thereof” (Arec Crop Protection B.V., priority 2016, dated 2022)
Read-outs that look alike come from different tables or passages of the source.

Legend:
[1] = BET surface area analysis; format: physicochemical; set-up: BET analysis: dose or concentration left out as unconfirmed; settings: for BET analysis: milled to a particle size of 2 μm; for BET: batches of Table 20
Description: Surface area may be measured by any suitable methods or techniques known in the art. For example, with respect to the variations described above, the surface area is measured by BET (also known in the art as Brunauer, Emmett and Tellers analysis theory). Using BET analysis, the surface area of the natamycin composition may be determined by physical adsorption of nitrogen (N2) gas on the surface of the natamycin composition, which is a solid. The value of the BET analysis is expressed as m^2 per gram of solid material.
Brunauer, Emmett, and Tellers (BET) analysis theory was used to determine the surface area (expressed as m^2/g) for Natamycin Composition A and Control Natamycin. Each sample was milled to a particle size of […] prior to BET analysis.

[2] = Saturation studies: dissolution in water with 5% polysorbate 80, HPLC peak areas; format: physicochemical; settings: water + 5% polysorbate 80, 22° C.
Description: Saturation studies were performed on Natamycin Composition A and Control Natamycin, both at 25% (w/w %) suspension in water. […] To prepare the samples for solubility analysis, a plastic pipet was used to add 3 drops (0.25 mL) of thoroughly shaken formulation to 10 mL of the dissolution medium. […] Then, 0.05 mL of the mobile phase was added to 0.25 mL of the filtrated natamycin aliquot. The aliquots were then injected individually onto a high performance liquid chromatography (HPLC) column and the resulting peak areas were calculated. […] The column temperature was set to 25° C. and the natamycin was detected at a wavelength of 304 nm.

Fusarium graminearum = format: in vivo; settings: for Average Vigor: 0-10 scale
[3] = Liquid phase concentration of natamycin in the suspensions (centrifugation, HPLC); format: physicochemical; settings: supernatant of suspension in water
Description: The supernatants were then collected and diluted 10-fold with an acetonitrile:water (3:7) solution. The concentration of natamycin in the liquid layer was then determined by injecting the samples individually onto an HPLC and comparing the UV-Vis absorption to that of a standard natamycin stock solution.

Saccharomyces cerevisiae [4] = test: Bioavailability: filter disc inhibition zone on yeast agar plates (Examples 15 and 16); format: cell-based; settings: 10 μl of 3 mM natamycin
Description: Saccharomyces cerevisiae (at least 10^5 cfu/ml) was distributed on Petri dishes with a diameter of 145 mm containing 30 ml Potato Dextrose Agar (PDA; Carl Roth; pH of about 6) using sterilized swabs. […] Following the application of a filter, Petri dishes were incubated for 16 h h in a refrigerator at 4° C. to allow diffusion of natamycin into the agar. After 16 h the filter discs were removed from the agar and the Petri dishes were incubated upside down in a stove at 30° C. […] After 24 h incubation in the stove the size of the inhibition zone was determined using a digital caliper gauge. The data are presented as square mm and are an average of six replicas. The effect of 3 mM natamycin on yeast growth in Petri dishes was determined as described herein above. Numbers represent surface of inhibition zones expressed in square mm. Same methods as described above in Example 15. The effect of 3 mM natamycin on yeast growth in Petri dishes was determined as described herein above, unless otherwise indicated.

[5] = Average particle size of natamycin batches (Example 14); format: physicochemical; settings: batches of Table 20
Description: Methods for determining the average size of particles in a composition are known to the skilled person. For example, Hukkanen and Braatz, 2003. Sensors and Actuators B 96: 451-459, discuss varies methods that can be used for determining the average particle size in a composition, including forward light scattering and ultrasonic extinction. A preferred method is sieve analysis or laser diffraction analysis, for example using a Analysette 22-MicroTec plus laser-particle-sizer (Fritsch, Idar-Oberstein, Germany).
Several batches of crude natamcyin, prepared as described herein above, and commercial batches of purified natamycin (95%) were obtained and analysed.

Botrytis cinerea = test: Botrytis on wounded apples (Examples 18 to 20); format: in vivo
Description: Tested fruit: apples […] from organic origin/SKAL certified. SKAL is a semi-governmental Dutch organization that controls organic production in the Netherlands. Wounds of the apples were checked at day 3. Natamycin with different proteins and starch contents were tested at a natamycin concentration of 100 ppm. Used pathogen: Botrytis cinerea spore-suspension containing 2*10^6 spores/ml. Application: The fruit peel of the apple was damaged with a cork borer, ø 4 mm and depth 0.5 cm into the fruit, with 2 wounds per apple. 40 microliter of a freshly prepared spore suspension of B. cinerea was applied by pipette onto each wound. Subsequently, the spore-suspension was allowed to air-dry for 4 hours. Then, 50 microliter of a treatment as presented in the list above was applied by pipette to each wound. All fruits were kept at room temperature (20° C.). Wounds of the apples were checked after 3 days of incubation. The efficacy was calculated by measuring the surface area (square mm) of the rot on the apples compared to the untreated control (see Tables 31 and 32). Replicates: All treatments for the apple experiment were performed on six individual apples with two wounds each resulting in 12 wounds per treatment. This experiment was performed as described in Example 18. This experiment was performed as described in Example 19. Natamycin A and Natamycin E were used at different concentrations and data were recorded at different time points, as is indicated in Table 35.

Saccharomyces cerevisiae [6] = test: Bioavailability: filter disc inhibition zone, disc moved to a new plate after 24 h (Example 17); format: cell-based; settings: 50 μl of 3 mM natamycin
Description: Saccharomyces cerevisiae (at least 10^5 cfu/ml) was distributed on Petri dishes with a diameter of 90 mm containing 10 ml PDA agar (Carl Roth, pH about 6) using sterilized swabs. Filter paper discs (Whatman) with a diameter of 6 mm were loaded with 50 μl of a solution containing a concentration of 3 mM natamycin. The size of the inhibition zone is a result of the natamycin released from the sample disc. After 24 h of incubation in the stove the size of the inhibition zone was measured using a digital caliper gauge. After measuring, the filter discs were removed and replaced on a new Petri dish similar to the previous one (90 mm containing 10 ml PDA agar and Saccharomyces cerevisiae (at least 10^5 cfu/ml) distributed by swabs). 24 hours after the replacement of the filters, the inhibition zone was measured again. The data are presented as square mm and are an average of four replicas.

Molecule C[C@@H]1C/C=C/C=C/C=C/C=C/[C@H](O[C@@H]2O[C@H](C)[C@@H](O)[C@H](N)[C@@H]2O)C[C@@H]2O[C@](O)(C[C@@H](O)C[C@H]3O[C@@H]3/C=C/C(=O)O1)C[C@H](O)[C@H]2C(=O)O [Control Natamycin, comprising natamycin batch # 140206] has a BET analysis [1] of 7.7 m^2/g.

In the case of C[C@@H]1C/C=C/C=C/C=C/C=C/[C@H](O[C@@H]2O[C@H](C)[C@@H](O)[C@H](N)[C@@H]2O)C[C@@H]2O[C@](O)(C[C@@H](O)C[C@H]3O[C@@H]3/C=C/C(=O)O1)C[C@H](O)[C@H]2C(=O)O [Control Natamycin, comprising natamycin F], the BET analysis [1] is reported as 9.4 m^2/g.

C[C@@H]1C/C=C/C=C/C=C/C=C/[C@H](O[C@@H]2O[C@H](C)[C@@H](O)[C@H](N)[C@@H]2O)C[C@@H]2O[C@](O)(C[C@@H](O)C[C@H]3O[C@@H]3/C=C/C(=O)O1)C[C@H](O)[C@H]2C(=O)O [Control Natamycin, natamycin] gave an HPLC peak area ([2]; 20 s) of 3966 mAUs, an HPLC peak area ([2]; 60 s) of 4077 mAUs and an HPLC peak area ([2]; 300 s) of 4005 mAUs. For the same molecule, the “Number of plants at last count” value (Fusarium graminearum; 2.5 g AI/100 kg) was 47, the Plant loss (Fusarium graminearum; 2.5 g AI/100 kg) was 52% and the “Average Vigor” value (Fusarium graminearum; 2.5 g AI/100 kg) was 7.9. For the same molecule, the “Number of plants at last count” value (Fusarium graminearum; 5 g AI/100 kg) was 45, the Plant loss (Fusarium graminearum; 5 g AI/100 kg) was 52% and the “Average Vigor” value (Fusarium graminearum; 5 g AI/100 kg) was 7.8. The “Number of plants at last count” value (Fusarium graminearum; 10 g AI/100 kg) was 36, the Plant loss (Fusarium graminearum; 10 g AI/100 kg) was 62% and the “Average Vigor” value (Fusarium graminearum; 10 g AI/100 kg) was 7.5. For the same molecule, the “Number of plants at last count” value (Fusarium graminearum; 20 g AI/100 kg) was 45, the Plant loss (Fusarium graminearum; 20 g AI/100 kg) was 52% and the “Average Vigor” value (Fusarium graminearum; 20 g AI/100 kg) was 7.7. For the same molecule, the “average BET surface area” value ([1]; average of the trials of Table 4) was 8.5 m^2/g and the “Natamycin in the liquid phase” value [3] was 68 µg/mL.

For C[C@@H]1C/C=C/C=C/C=C/C=C/[C@H](O[C@@H]2O[C@H](C)[C@@H](O)[C@H](N)[C@@H]2O)C[C@@H]2O[C@](O)(C[C@@H](O)C[C@H]3O[C@@H]3/C=C/C(=O)O1)C[C@H](O)[C@H]2C(=O)O [Natamycin F, natamycin], the Inhibition zone (Saccharomyces cerevisiae [4]; Table 21, 16 h 4° C. then 24 h 30° C.) was 183 mm^2, the Inhibition zone (Saccharomyces cerevisiae [4]; Table 25) was 142 mm2 and the Inhibition zone (Saccharomyces cerevisiae [4]; Table 29) was 100 mm2. For the same molecule, the “D0.5 (average particle size of the particles)” value [5] was 15.3 μm, the BET [1] was 9.36 m^2/g and the Efficacy (Botrytis cinerea; Table 33, 100 ppm natamycin, day 3) was 60.2%.

For C[C@@H]1C/C=C/C=C/C=C/C=C/[C@H](O[C@@H]2O[C@H](C)[C@@H](O)[C@H](N)[C@@H]2O)C[C@@H]2O[C@](O)(C[C@@H](O)C[C@H]3O[C@@H]3/C=C/C(=O)O1)C[C@H](O)[C@H]2C(=O)O [Natamycin E, natamycin], the Inhibition zone (Saccharomyces cerevisiae [4]; Table 24) was 242 mm2, the Inhibition zone (Saccharomyces cerevisiae [4]; Table 26) was 188 mm2 and the Inhibition zone (Saccharomyces cerevisiae [4]; Table 27) was 179 mm2. The Inhibition zone (Saccharomyces cerevisiae [4]; Table 28) was 110 mm2, the “D0.5 (average particle size of the particles)” value [5] was 14.4 μm and the Efficacy (Botrytis cinerea; Table 32, 100 ppm natamycin, day 3) was 54%. The Efficacy (Botrytis cinerea; Table 34, day 3) was 75%, the Efficacy (Botrytis cinerea; Table 34, day 5) was 58% and the Efficacy (Botrytis cinerea; Table 34, day 7) was 53%. It also gave an Efficacy (Botrytis cinerea; Table 34, day 9) of 42%, an Efficacy (Botrytis cinerea; Table 35, 100 ppm, day 3) of 84% and an Efficacy (Botrytis cinerea; Table 35, 100 ppm, day 5) of 41%. It also gave an Efficacy (Botrytis cinerea; Table 35, 100 ppm, day 7) of 12%, an Efficacy (Botrytis cinerea; Table 35, 2000 ppm, day 3) of 100% and an Efficacy (Botrytis cinerea; Table 35, 2000 ppm, day 5) of 62%. The Efficacy (Botrytis cinerea; Table 35, 2000 ppm, day 7) was 50%, the Inhibition zone (Saccharomyces cerevisiae [6]; 24 h) was 480 mm^2 and the Inhibition zone (Saccharomyces cerevisiae [6]; 48 h (disc replaced on a new plate after 24 h)) was 298 mm^2.

C[C@@H]1C/C=C/C=C/C=C/C=C/[C@H](O[C@@H]2O[C@H](C)[C@@H](O)[C@H](N)[C@@H]2O)C[C@@H]2O[C@](O)(C[C@@H](O)C[C@H]3O[C@@H]3/C=C/C(=O)O1)C[C@H](O)[C@H]2C(=O)O [Natamycin 140206, natamycin] showed an Inhibition zone (Saccharomyces cerevisiae [4]; Table 22) of 167 mm^2 and a BET [1] of 7.73 m^2/g.
